Converted amounts (≈) assume the structure as drawn. Structures can show the parent of a compound that is named as a salt. Where two headings read alike, the source gives them in different places.
Legend:
in vivo = assay: in vivo; set-up: species or system male Japanese native strain white rabbits; conditions: blood, rabbit, oral, 20 mg/kg suspended in 5% gum arabic, bioassay (Bacillus luteus S1101)
Protocol: Three male Japanese native strain white rabbits weighing 2.50 to 3.15 kg for each group were administered orally with the test compounds, and the change of the concentration of the compound in blood was measured.
Dosage of the test compound: 20 mg/kg (suspended in 5% gum arabic).
Quantitative method: Bioassy method (test bacterium: Bacillus luteus S1101).

Eschelichia coli A13 = assay: antibacterial activity, agar plate dilution method (MIC); type: cell-based; conditions: read-out: Minimum Inhibitory Concentration (MIC)
Protocol: (§1) The antibacterial activity against various bacteria was measured by the agar plate dilution method (inoculum size: 10^6 cells/ml), and the results are shown in the following Table 1.

[1] = system: Entercococcus faecalis ATCC 8043; assay: as above; type: cell-based; conditions: read-out: Minimum Inhibitory Concentration (MIC)
Protocol: as §1

[2] = system: Staphylococcus aureus K-1; assay: as above; type: cell-based
Protocol: as §1

[3] = system: Staphylococcus aureus 209P-JC; assay: as above; type: cell-based; conditions: read-out: Minimum Inhibitory Concentration (MIC)
Protocol: as §1

[4] = system: Staphylococcus epidermidis sp-al-1; assay: as above; type: cell-based
Protocol: as §1

[5] = system: Eschelichia coli NIHJ JC-2; assay: as above; type: cell-based; conditions: read-out: Minimum Inhibitory Concentration (MIC)
Protocol: as §1

[6] = Staphylococcus aureus, K1, read-out: Minimum Inhibitory Concentration (MIC)
[7] = Staphylococcus epidermidis, SPAL1, read-out: Minimum Inhibitory Concentration (MIC)
[8] = Eschelichia coli A13, inoculum size: 10^6 cells/ml
[9] = Entercococcus faecalis ATCC 8043, inoculum size: 10^6 cells/ml
[10] = K1, Staphylococcus aureus K-1, inoculum size: 10^6 cells/ml, read-out: Minimum Inhibitory Concentration (MIC)
[11] = Staphylococcus aureus 209P-JC, inoculum size: 10^6 cells/ml
[12] = SPAL1, Staphylococcus epidermidis sp-al-1, inoculum size: 10^6 cells/ml, read-out: Minimum Inhibitory Concentration (MIC)
[13] = Eschelichia coli NIHJ JC-2, inoculum size: 10^6 cells/ml

N#CCSC1=C(C(=O)[O-])N2C(=O)[C@@H](NC(=O)/C(=N\O)c3csc(N)n3)[C@H]2SC1.[Na+]
concentration at 4 h (in vivo; Four Hours after administration): 2500 ng/mL | concentration at 1 h (in vivo; One Hour after administration): 2500 ng/mL | concentration at 2 h (in vivo; Two Hours after administration): 4000 ng/mL | MIC (Eschelichia coli A13): 1.56 µg/mL | MIC [1]: 1.56 µg/mL | MIC [2, 6]: 0.78 µg/mL | MIC ([3]; Staphylococcus aureus, 209P): 0.2 µg/mL | MIC [4, 7]: 0.78 µg/mL | MIC [5]: 0.2 µg/mL

Nc1nc(/C(=N/O)C(=O)N[C@@H]2C(=O)N3C(C(=O)O)=C(SCCF)CS[C@H]23)cs1 [B]
MIC (Eschelichia coli A13; [8]): 6.25 µg/mL (≈ 14 µM) | MIC [1, 9]: 25 µg/mL (≈ 55.9 µM) | MIC [2, 10]: 0.78 µg/mL (≈ 1.74 µM) | MIC [3, 11]: 0.39 µg/mL (≈ 0.872 µM) | MIC [4, 12]: 0.78 µg/mL (≈ 1.74 µM) | MIC [5, 13]: 0.39 µg/mL (≈ 0.872 µM)

C=CCSC1=C(C(=O)O)N2C(=O)[C@@H](NC(=O)/C(=N\O)c3csc(N)n3)[C@H]2SC1 [C]
MIC (Eschelichia coli A13): 6.25 µg/mL (≈ 14.2 µM) | MIC [1]: 12.5 µg/mL (≈ 28.3 µM) | MIC [2, 6]: 6.25 µg/mL (≈ 14.2 µM) | MIC [3, 11]: 0.2 µg/mL (≈ 0.453 µM) | MIC [4, 12]: 0.39 µg/mL (≈ 0.883 µM) | MIC [5, 13]: 0.2 µg/mL (≈ 0.453 µM)

CC1=C(C(=O)O)N2C(=O)[C@@H](NC(=O)[C@H](N)c3ccccc3)[C@H]2SC1 [D, Cephalexin, reference compound]
MIC (Eschelichia coli A13): > 100 µg/mL | MIC [1]: 100 µg/mL (≈ 288 µM) | MIC [2, 6]: > 100 µg/mL | MIC ([3]; Staphylococcus aureus, 209P): 0.78 µg/mL (≈ 2.25 µM) | MIC [4, 7]: 1.56 µg/mL (≈ 4.49 µM) | MIC [5]: 6.25 µg/mL (≈ 18 µM)

C=CC1=C(C(=O)O)N2C(=O)[C@@H](NC(=O)/C(=N\OCC(=O)O)c3csc(N)n3)[C@H]2SC1 [E, Cefixime sodium salt, reference compound]
MIC (Eschelichia coli A13; [8]): > 100 µg/mL | MIC [1, 9]: > 100 µg/mL | MIC [2, 10]: > 100 µg/mL | MIC ([3]; Staphylococcus aureus, 209P): 12.5 µg/mL | MIC [4, 12]: 50 µg/mL | MIC [5]: 0.39 µg/mL
